Assay type in all cases: functional
Assay [1] has as its system Staphylococcus aureus. Put plainly: Antibacterial activity against Staphylococcus aureus UPCC 1143 at 30 ug by agar well method. The following applies: read-out: IZ.
Assay [2] deals with Escherichia coli. Put plainly: Antibacterial activity against Escherichia coli UPCC 1195 assessed as activity index at 30 ug by agar well method relative to control.
Assay [3] concerns Bacillus subtilis. Put plainly: Antibacterial activity against Bacillus subtilis UPCC 1295 assessed as activity index at 30 ug by agar well method relative to control.
Assay [4] has as its system Staphylococcus aureus. Description: Antibacterial activity against Staphylococcus aureus UPCC 1143 assessed as activity index at 30 ug by agar well method relative to control.
Assay [5] deals with Escherichia coli. Put plainly: Antibacterial activity against Escherichia coli UPCC 1195 at 30 ug by agar well method. The following applies: read-out: IZ.
Assay [6] relates to Bacillus subtilis. Description: Antibacterial activity against Bacillus subtilis UPCC 1295 at 30 ug by agar well method. The following applies: read-out: IZ.
The test system of assay [7] is Pseudomonas aeruginosa. Description: Antibacterial activity against Pseudomonas aeruginosa UPCC 1244 assessed as activity index at 30 ug by agar well method relative to control.
For assay [8], the system named is Pseudomonas aeruginosa. Put plainly: Antibacterial activity against Pseudomonas aeruginosa UPCC 1244 at 30 ug by agar well method. The following applies: read-out: IZ.
Assay [9] has as its system Aspergillus niger. Description: Antimicrobial activity against Aspergillus niger UPCC 4219 at 30 ug by agar well method. The following applies: read-out: IZ.
Assay [10] deals with Aspergillus niger. Description: Antimicrobial activity against Aspergillus niger UPCC 4219 assessed as activity index at 30 ug by agar well method relative to control.
Assay [11] concerns Trichophyton mentagrophytes. Put plainly: Antimicrobial activity against Trichophyton mentagrophytes UPCC 4193 at 30 ug by agar well method. Conditions: read-out: IZ.
Assay [12] has as its system Candida albicans. Description: Antimicrobial activity against Candida albicans UPCC 2168 at 30 ug by agar well method. Conditions: read-out: IZ.
In assay [13] the test system is Candida albicans. Description: Antimicrobial activity against Candida albicans UPCC 2168 assessed as activity index at 30 ug by agar well method relative to control.
Assay [14] deals with Trichophyton mentagrophytes. Description: Antimicrobial activity against Trichophyton mentagrophytes UPCC 4193 assessed as activity index at 30 ug by agar well method relative to control.

The structures appear in SMILES notation.

In the case of `O=C(N[C@H](CO)[C@H](O)c1ccc([N+](=O)[O-])cc1)C(Cl)Cl` [CHLORAMPHENICOL], the zone of inhibition at 30 µg/disc with Staphylococcus aureus [1] amounted to 25 mm; in the assay on Escherichia coli [5], 23 mm; in the assay on Bacillus subtilis [6], 20 mm; in the assay on Pseudomonas aeruginosa [8], 14 mm. Also, the Activity_index in the assay with Escherichia coli [2] was 2.8; in the assay with Bacillus subtilis [3], 2.3; with Staphylococcus aureus [4] it was 3.2; with Pseudomonas aeruginosa [7] it was 1.3.
For the molecule `O=C1C[C@@]2(CO1)CO[C@@]1(CO)CC(=O)O[C@@H]21` [LAPPACEOLIDE A], the zone of inhibition at 30 µg/disc in the assay with Staphylococcus aureus [1] was determined as 11 mm; in the assay on Aspergillus niger [9], 12 mm; in [11], 14 mm; with Escherichia coli [5], 11 mm; in the assay with Candida albicans [12], 13 mm; with Pseudomonas aeruginosa [8] it was 12 mm. Besides, the Activity_index with Escherichia coli [2] stood at 0.1; in the assay on Aspergillus niger [10] it was 0.2; in the assay on Bacillus subtilis [3], 0; with Staphylococcus aureus [4] it was 0.1; in the assay on Pseudomonas aeruginosa [7] it was 0.2; in the assay on Candida albicans [13] it was 0.3. Besides, the Activity_index in assay [14] is 0.4.
Take `O=C1C[C@]2(CO1)CO[C@@]1(CO)CC(=O)O[C@@H]21` [LAPPACEOLIDE B]: the zone of inhibition at 30 µg/disc in the assay on Staphylococcus aureus [1] stood at 11 mm; in the assay with Aspergillus niger [9], 11 mm; in assay [11], 13 mm; in the assay with Escherichia coli [5], 11 mm; in the assay on Candida albicans [12], 13 mm; in the assay on Pseudomonas aeruginosa [8] it was 12 mm. Besides, the Activity_index with Escherichia coli [2] is 0.1; in the assay on Aspergillus niger [10] it was 0.1; in the assay on Bacillus subtilis [3] it was 0; in the assay on Staphylococcus aureus [4], 0.1; in the assay with Pseudomonas aeruginosa [7], 0.2; in the assay with Candida albicans [13], 0.3. In assay [14], the Activity_index stood at 0.3.
